The values that follow come from ChEMBL document CHEMBL5465560, “Selectivity Literature for EUbOPEN Chemogenomic Library” (2024).

Assay [1] addresses Tyrosine-protein kinase HCK (Homo sapiens) (UniProt P08631). Kind of assay: Selectivity interaction (KinomeScan (DiscoverX)) EUB0001079a HCK. Particulars: at 1 µM.
For assay [2], the target named is Serine/threonine-protein kinase pim-1 (Homo sapiens, UniProt P11309). Description: Selectivity interaction (KinomeScan (DiscoverX)) EUB0001079a PIM1. Particulars: at 1 µM.
Assay [3] has as its target Transient receptor potential cation channel subfamily M member 6 (Homo sapiens) (UniProt Q9BX84). Description: Selectivity interaction (KinomeScan (DiscoverX)) EUB0001049a TRPM6. The note with it: at 1 µM.
Assay [4] concerns the target T1, Ephrin type-A receptor 8 (Homo sapiens) (UniProt P29322).
T1 sequence (whole entry): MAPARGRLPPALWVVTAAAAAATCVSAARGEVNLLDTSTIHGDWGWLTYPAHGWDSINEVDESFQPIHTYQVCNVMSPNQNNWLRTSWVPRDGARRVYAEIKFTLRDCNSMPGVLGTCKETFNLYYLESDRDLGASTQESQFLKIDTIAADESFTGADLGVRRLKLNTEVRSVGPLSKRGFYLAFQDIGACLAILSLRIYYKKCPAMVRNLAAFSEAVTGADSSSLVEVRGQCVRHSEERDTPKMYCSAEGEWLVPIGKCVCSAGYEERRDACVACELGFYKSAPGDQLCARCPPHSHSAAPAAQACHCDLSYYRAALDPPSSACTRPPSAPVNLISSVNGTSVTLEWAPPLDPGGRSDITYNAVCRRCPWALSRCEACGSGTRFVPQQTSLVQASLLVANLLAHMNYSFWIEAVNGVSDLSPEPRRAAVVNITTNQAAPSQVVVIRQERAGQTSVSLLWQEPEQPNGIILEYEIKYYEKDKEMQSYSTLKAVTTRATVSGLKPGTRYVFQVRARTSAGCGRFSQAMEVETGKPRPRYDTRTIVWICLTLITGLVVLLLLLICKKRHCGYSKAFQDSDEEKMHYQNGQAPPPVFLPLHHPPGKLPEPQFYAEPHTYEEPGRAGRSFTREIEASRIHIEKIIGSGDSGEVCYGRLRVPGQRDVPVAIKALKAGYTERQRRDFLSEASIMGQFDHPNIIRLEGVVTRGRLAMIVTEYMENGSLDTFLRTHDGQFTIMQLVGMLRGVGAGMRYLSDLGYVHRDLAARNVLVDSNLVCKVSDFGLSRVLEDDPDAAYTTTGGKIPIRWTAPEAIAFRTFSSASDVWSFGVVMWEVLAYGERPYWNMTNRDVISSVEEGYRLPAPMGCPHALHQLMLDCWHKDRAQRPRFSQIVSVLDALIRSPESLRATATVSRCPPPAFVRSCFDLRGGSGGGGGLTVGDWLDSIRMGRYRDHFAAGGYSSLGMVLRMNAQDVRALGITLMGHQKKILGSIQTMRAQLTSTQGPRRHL
Description: Selectivity interaction (KinomeScan (DiscoverX)) EUB0001049a EPHA8. The note with it: at 1 µM.

Assay [5] concerns the target Histone-lysine N-methyltransferase KMT5C (Homo sapiens) (UniProt Q86Y97). Description: Selectivity interaction (Transferase panel (protein, RNA, and DNA methyltransferases. and EP300 (acetyltransferase))) EUB0000270b SUV420H2.
For assay [6], the target named is Ephrin type-A receptor 5 (Homo sapiens) (UniProt P54756). Kind of assay: Selectivity interaction (KinomeScan (DiscoverX)) EUB0000045b EPHA5.
In assay [7] the target is T2, Serine/threonine-protein kinase 3 (Homo sapiens) (UniProt Q13188).
T2 sequence (whole entry): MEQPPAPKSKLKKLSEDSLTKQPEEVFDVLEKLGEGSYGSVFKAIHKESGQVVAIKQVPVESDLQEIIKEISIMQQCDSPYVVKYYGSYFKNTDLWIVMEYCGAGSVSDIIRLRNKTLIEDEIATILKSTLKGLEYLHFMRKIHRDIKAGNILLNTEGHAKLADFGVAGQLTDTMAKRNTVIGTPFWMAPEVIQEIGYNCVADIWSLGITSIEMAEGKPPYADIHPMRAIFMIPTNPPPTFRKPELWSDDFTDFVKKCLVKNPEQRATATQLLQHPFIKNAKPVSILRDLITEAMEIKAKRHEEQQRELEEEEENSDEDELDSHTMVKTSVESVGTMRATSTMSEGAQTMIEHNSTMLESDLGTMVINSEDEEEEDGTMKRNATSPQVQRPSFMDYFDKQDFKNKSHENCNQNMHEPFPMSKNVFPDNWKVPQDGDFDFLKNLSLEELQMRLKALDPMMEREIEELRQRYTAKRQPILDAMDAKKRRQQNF
Kind of assay: Selectivity interaction (Kinase panel (Z-LYTE Assay)) EUB0001632a STK3. The note with it: at 10 µM.

In assay [8] the target is Ephrin type-A receptor 2 (Homo sapiens) (UniProt P29317). Description: Selectivity interaction (Kinase panel (Z-LYTE Assay)) EUB0001632a EPHA2. The note with it: at 10 µM.
Assay [9] addresses T1, Ephrin type-A receptor 8 (Homo sapiens). Kind of assay: Selectivity interaction (Kinase panel (Invitrogen)) EUB0000639a EPHA8. Particulars: at 200 nM.
The target of assay [10] is Putative phosphatidylinositol 4-kinase alpha-like protein P2 (Homo sapiens) (UniProt A4QPH2). Description: Selectivity interaction (ActivX KiNativ screen (kinase selectivity in THP-1 cell lysates)) EUB0000639a PI4KAP2. The class given is subcellular. The note with it: lysate.
For assay [11], the target named is T3, Serine/threonine-protein kinase RIO1 (Homo sapiens) (UniProt Q9BRS2).
T3 sequence (whole entry): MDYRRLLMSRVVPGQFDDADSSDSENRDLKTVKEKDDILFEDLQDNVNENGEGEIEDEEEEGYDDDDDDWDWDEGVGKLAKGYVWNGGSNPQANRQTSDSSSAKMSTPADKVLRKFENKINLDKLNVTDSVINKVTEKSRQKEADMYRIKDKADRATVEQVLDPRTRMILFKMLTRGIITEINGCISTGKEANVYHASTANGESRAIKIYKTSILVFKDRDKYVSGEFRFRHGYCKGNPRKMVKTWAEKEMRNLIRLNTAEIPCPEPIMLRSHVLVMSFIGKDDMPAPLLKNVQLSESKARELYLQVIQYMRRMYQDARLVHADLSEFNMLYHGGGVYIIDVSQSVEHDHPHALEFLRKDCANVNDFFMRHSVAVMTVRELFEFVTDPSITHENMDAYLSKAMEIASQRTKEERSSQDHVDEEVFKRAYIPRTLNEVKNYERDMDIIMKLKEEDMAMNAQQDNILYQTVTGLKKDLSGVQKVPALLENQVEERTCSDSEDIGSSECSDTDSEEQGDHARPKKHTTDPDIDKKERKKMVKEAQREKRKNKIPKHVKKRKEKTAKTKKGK
Kind of assay: Selectivity interaction (Kinase panel (DSF assay)) EUB0001559a RIOK1.

Putative phosphatidylinositol 4-kinase alpha-like protein P2 (Homo sapiens), sequence (A4QPH2 whole entry): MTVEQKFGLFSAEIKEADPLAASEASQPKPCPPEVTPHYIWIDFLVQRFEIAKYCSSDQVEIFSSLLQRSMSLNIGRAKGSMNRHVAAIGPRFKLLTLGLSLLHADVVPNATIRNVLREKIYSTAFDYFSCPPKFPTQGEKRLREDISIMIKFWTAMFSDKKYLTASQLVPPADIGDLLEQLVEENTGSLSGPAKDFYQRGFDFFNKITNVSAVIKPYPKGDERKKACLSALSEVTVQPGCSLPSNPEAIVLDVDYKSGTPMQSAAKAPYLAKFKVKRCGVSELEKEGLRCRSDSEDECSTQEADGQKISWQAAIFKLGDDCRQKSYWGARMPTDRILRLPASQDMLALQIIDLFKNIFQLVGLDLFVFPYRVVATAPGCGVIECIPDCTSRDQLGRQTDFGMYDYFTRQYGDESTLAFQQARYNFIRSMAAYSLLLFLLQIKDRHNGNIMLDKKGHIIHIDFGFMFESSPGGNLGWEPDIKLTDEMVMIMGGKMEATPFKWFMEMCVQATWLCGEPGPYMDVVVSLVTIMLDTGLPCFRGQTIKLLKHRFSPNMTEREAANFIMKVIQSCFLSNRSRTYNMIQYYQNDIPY
Histone-lysine N-methyltransferase KMT5C (Homo sapiens), sequence (Q86Y97 whole entry, looked up): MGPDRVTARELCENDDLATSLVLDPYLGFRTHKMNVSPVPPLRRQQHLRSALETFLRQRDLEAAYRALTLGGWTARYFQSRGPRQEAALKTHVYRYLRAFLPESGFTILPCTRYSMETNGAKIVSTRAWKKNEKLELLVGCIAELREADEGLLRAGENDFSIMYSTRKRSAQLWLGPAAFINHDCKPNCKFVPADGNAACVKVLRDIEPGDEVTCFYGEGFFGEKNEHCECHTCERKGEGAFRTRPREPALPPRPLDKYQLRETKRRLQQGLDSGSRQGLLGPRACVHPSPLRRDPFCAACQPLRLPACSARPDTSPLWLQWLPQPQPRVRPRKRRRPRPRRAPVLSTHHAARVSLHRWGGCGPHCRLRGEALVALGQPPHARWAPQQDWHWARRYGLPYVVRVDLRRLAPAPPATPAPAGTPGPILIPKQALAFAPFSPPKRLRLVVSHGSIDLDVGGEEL
Ephrin type-A receptor 5 (Homo sapiens), sequence (P54756 whole entry): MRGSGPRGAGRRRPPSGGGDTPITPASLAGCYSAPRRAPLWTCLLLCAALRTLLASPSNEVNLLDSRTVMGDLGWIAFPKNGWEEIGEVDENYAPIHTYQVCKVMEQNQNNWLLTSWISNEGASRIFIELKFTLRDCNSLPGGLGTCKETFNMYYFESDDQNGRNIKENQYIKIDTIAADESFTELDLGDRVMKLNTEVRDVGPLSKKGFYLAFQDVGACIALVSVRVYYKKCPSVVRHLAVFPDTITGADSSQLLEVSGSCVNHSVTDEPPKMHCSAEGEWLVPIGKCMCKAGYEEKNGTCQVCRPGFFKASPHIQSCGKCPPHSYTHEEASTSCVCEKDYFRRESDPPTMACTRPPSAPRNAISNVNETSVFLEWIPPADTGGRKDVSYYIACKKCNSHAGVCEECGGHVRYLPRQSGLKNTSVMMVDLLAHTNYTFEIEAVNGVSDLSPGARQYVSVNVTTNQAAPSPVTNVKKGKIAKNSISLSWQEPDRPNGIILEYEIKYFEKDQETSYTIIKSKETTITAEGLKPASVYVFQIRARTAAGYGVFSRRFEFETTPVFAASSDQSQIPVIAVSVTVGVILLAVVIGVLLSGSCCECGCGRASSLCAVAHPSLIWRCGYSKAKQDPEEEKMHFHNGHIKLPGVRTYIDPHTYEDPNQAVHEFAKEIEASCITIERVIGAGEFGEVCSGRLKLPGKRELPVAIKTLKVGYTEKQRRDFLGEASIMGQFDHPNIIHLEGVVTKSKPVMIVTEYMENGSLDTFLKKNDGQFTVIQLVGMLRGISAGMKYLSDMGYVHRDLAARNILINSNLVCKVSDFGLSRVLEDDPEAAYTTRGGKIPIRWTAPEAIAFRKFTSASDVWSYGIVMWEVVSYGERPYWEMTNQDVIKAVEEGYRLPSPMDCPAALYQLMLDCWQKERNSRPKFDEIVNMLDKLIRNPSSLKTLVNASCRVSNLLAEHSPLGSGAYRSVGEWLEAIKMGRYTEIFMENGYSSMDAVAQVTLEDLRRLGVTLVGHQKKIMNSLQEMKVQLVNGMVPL
Ephrin type-A receptor 2 (Homo sapiens), sequence (P29317 whole entry): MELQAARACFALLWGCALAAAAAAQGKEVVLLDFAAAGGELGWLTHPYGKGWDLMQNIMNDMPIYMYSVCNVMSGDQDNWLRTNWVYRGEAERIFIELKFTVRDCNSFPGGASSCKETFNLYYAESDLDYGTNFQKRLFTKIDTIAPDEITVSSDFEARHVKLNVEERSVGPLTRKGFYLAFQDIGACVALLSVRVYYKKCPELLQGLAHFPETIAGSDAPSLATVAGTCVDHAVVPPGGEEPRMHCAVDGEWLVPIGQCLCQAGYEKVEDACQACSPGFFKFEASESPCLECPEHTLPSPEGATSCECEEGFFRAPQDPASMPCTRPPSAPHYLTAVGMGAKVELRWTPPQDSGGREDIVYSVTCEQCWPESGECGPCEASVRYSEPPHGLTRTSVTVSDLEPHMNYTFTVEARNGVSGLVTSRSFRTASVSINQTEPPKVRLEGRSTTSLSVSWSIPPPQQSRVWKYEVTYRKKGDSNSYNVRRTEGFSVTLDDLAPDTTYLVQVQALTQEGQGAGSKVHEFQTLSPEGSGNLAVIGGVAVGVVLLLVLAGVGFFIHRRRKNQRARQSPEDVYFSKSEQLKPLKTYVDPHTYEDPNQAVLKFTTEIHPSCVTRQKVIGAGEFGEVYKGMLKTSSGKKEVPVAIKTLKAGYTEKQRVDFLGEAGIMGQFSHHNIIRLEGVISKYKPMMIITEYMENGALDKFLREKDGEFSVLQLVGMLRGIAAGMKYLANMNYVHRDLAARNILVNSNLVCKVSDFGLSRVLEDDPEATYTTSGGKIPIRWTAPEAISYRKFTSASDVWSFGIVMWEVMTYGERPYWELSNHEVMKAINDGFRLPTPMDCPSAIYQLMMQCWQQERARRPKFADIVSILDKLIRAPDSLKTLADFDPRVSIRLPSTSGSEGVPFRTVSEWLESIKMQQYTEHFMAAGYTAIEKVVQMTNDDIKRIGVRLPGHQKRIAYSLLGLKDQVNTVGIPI
Transient receptor potential cation channel subfamily M member 6 (Homo sapiens), sequence (Q9BX84 whole entry): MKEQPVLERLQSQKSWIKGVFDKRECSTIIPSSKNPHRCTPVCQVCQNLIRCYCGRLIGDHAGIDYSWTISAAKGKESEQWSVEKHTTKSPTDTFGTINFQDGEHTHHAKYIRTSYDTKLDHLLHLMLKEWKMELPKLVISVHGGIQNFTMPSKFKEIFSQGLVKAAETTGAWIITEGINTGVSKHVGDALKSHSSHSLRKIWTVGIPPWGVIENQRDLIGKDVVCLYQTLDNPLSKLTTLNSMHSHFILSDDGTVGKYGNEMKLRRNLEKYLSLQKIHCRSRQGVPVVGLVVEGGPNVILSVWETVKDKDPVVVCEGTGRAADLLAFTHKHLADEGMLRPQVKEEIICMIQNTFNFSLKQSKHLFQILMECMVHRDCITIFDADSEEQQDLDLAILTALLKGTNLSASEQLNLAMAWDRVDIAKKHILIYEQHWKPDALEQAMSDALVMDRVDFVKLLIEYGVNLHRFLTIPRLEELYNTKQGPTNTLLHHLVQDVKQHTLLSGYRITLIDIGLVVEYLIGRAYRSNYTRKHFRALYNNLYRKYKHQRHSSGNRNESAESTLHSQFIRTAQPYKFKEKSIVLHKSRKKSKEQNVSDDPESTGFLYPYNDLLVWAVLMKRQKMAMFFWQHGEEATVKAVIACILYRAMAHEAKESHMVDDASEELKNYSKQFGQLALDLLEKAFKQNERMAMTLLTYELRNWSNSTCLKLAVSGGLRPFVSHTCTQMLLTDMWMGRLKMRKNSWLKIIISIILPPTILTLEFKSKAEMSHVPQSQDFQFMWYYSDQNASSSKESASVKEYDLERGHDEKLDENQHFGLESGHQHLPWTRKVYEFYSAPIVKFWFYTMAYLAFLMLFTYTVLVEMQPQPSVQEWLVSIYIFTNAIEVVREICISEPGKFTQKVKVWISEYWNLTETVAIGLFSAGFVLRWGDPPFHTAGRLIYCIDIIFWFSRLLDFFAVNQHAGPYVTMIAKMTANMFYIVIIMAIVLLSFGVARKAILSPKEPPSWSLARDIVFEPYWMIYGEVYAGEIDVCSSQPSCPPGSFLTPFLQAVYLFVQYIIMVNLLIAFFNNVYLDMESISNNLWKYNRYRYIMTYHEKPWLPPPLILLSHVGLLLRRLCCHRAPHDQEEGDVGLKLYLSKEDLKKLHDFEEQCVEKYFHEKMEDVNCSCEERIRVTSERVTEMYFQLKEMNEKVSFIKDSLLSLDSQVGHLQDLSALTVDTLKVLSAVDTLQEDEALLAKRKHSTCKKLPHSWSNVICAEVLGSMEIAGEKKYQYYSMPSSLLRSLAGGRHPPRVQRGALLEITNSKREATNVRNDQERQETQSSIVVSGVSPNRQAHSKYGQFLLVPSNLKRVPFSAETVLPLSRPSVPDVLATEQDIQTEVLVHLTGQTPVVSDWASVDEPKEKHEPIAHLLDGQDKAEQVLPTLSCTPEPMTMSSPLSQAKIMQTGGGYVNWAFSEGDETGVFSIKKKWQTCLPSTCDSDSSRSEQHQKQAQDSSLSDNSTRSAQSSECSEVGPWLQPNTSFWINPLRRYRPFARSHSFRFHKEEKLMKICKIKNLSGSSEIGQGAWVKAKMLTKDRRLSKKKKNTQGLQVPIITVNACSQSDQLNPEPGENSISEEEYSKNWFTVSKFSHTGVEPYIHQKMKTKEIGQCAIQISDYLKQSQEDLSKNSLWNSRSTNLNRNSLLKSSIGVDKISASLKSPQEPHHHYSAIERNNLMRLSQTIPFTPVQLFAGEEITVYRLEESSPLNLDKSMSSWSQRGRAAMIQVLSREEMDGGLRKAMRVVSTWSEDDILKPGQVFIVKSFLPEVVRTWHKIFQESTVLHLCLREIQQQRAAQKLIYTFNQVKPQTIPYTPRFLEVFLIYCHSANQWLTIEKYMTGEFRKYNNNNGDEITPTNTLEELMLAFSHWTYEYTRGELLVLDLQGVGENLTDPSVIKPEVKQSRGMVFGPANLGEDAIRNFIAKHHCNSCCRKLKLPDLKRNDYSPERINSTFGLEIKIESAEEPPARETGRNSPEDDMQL

Take `Nc1cnc(N2CCc3cc(S(=O)(=O)Nc4c(F)cc(Cl)cc4F)cc(N4CCCC4=O)c32)nc1` [TP-020n]: the % of control in assay [1] came to 100%; in [2], 88%.
As for `COc1cc(Nc2nc(C)cc(-c3cnn4nc(OC)ccc34)n2)cc(C(F)(F)F)c1`, the % of control in assay [3] was determined as 96%; in assay [4] it was 81%.
`Cc1cc(CN)cc(C)c1-c1ncn(C)c1-c1cncn1C`: the % activity is over 90% in [5] (at 1 µM) and over 80% in assay [5] (at 10 µM).
As for `C=CC(=O)Nc1cc(-n2c(=O)ccc3cnc4ccc(-c5ccc(NS(C)(=O)=O)cc5)cc4c32)ccc1C`, the figures for the % of control in assay [6] (at 1 µM) and in assay [6] (at 10 µM) were 100% and 97%, respectively.
Consider `Cn1cc(-n2cnc3c(NCc4nc5cc(Cl)c(Cl)cc5[nH]4)nc(N4CCOCC4)nc32)cn1`, for which the % of control in assay [7] was 0.418%; in assay [8], 14.4%.
Take `CC[C@@H]1[C@H](F)C(=O)N[C@@H]1COc1nccc2cc(C(N)=O)c(OC)cc12` [ZIMLOVISERTIB]: the % of inhibition in [9] is -0.726%; in [10] (at 0.01 µM) it was 7.2%; in assay [10] (at 0.04 µM) it was -7.1%; in [10] (at 0.2 µM), -24.4%; in assay [10] (at 1 µM), -6%; in [10] (at 5 µM) it was 38.5%.
Take `CN(C(=O)c1cnn2cccnc12)c1cc2c(cc1N1CCOCC1)C(=O)N(C[C@@H](F)C(C)(C)O)C2`: the dTM in [11] was -0.2 K.
